In US11072601B2, “μ-opioid receptor agonist and preparation method therefor and use thereof in field of medicine” (SHANGHAI SYNERGY PHARMACEUTICAL SCIENCES CO., LTD., priority 2017, dated 2021):

Tests used:
μ opioid receptor (MOR) = target: T1, μ opioid receptor (MOR) (Homo sapiens, UniProt P35372); assay: cell-based; conditions: HEK293 stably expressing μ opioid receptor, FLIPR calcium
T1 construct: host or cells: HEK293
Protocol: The purpose of the experiment was to test the agonistic effects of the compounds of the present invention on μ opioid receptor (MOR), κ opioid receptor (KOR) and δ opioid receptor (DOR), and to evaluate in vitro activity of the compounds according to the half-maximal effect concentration (EC50).
This test was performed using HEK293 cell lines (the stably expressed cell lines were provided by WuXi AppTec) which stably expressed μ opioid receptor, δ opioid receptor or κ opioid receptor respectively. […] The cells were centrifuged at 1000 rpm for 5 minutes at room temperature to precipitate. The supernatant was sucked out, be careful not to suck out cells. The precipitate was flicked into the loose cells and resuspend in 45 ml DMEM medium. The Vi-CELL XR automatic cell viability detector (BECKMAN COULTER) was used to count the cells, and the cell concentration was adjusted to 10×10^5 cells/ml based on the counting results.
Preparation of probenecid mother solution: 1 ml of FLIPR test solution was added to 77 mg probenecid to prepare a 250 mM solution. The solution was freshly prepared just before use.
The solution was freshly prepared just before use.
The cell plate prepared above was removed from the incubator and 20 ul 2× Fluo-4 Direct™ buffer was added thereto. The final volume in the cell plate was […]. The plate was incubated at 37° C., under 5% CO2 for 50 minutes, and incubated at room temperature for 10 minutes, then was placed into the FLIPR instrument (MD), and the compound plate and pipette box was placed into. The protocol was run on the […] platform, 10 μl of positive drug or the test compound was transfered to the cell plate from the compound plate, and the fluorescent signal was read.
The signal value generated by each well was calculated, and the calculation formula was that: the activity %=(signal value of the test compound−signal value of the solvent)/(signal value of the positive drug−signal value of the solvent).

[1] = target: T2, cAMP pathway of MOR receptor (Homo sapiens, UniProt P35372); assay: cell-based; conditions: cAMP Hunter HEK293 cells, forskolin-induced cAMP; read-out: EC50 of cAMP levels affected by agonistic effect on MOR
T2 construct: host or cells: HEK293 (cAMP Hunter cell line)
T2 sequence (P35372 whole entry): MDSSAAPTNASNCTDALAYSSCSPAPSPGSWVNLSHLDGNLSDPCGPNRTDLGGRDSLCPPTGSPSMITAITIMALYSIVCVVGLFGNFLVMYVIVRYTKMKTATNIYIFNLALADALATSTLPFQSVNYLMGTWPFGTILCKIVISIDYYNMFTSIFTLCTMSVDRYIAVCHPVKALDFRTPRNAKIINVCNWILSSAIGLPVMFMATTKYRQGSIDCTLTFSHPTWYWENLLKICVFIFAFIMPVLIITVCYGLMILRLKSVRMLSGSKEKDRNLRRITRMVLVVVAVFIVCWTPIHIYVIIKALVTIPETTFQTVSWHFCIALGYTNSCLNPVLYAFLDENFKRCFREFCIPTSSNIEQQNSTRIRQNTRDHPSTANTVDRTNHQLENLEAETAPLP
Source text: The purpose of this experiment was to test the agonistic effect of the compounds of the invention on the cAMP pathway of MOR and to evaluate the in vitro activity of the compounds according to EC50.
In this experiment, HitHunter cAMP Assay EFC technology of DiscoverX was used to measure the cAMP level in cells and monitor the functional status of G-protein coupled receptors (GPCRs).
The amount of signal produced was directly proportional to the amount of cAMP in the cell.
The MOR receptor was bound to the inhibitory Gαi protein, so forskolin (for inducing cAMP signal) was used to induce cAMP expression in the experiment, and the inhibitory effect of the compounds on the above induction was measured.
The cAMP Hunter cell line (HEK293, DiscoverX) was removed from the freezer and expanded according to the Cell Standard Operating Procedure (SOP), 20 μL was collected and inoculated into a 384-well microplate and incubated at 37° C. overnight.
The HitHunter cAMP Assay test kit (DiscoverX, 90-0075sm) was used, the kit contained cAMP buffer, cAMP detection solution, and cAMP working solution A.
The formula was used to calculate the percentage of signal activity per well=100%×(1−(average RLU of the test samples−average RLU of the MAX controls)/(average RLU of the solvent controls−average RLU of the MAX controls)). wherein, the MAX control referred to the fluorescence signal value of the endorphin solution, and the solvent control referred to the fluorescence signal value of DMSO. The DiscoveRx CBIS data analysis workstation (ChemInnovation, CA) was used to perform statistical analysis of the percentage of signal activity and the concentration of the compounds by the agonist formula (comes with the software, universal) to calculate the EC50 value.

[2] = target: T3, β-arrestin signaling pathway of MOR (Homo sapiens, UniProt P35372); assay: cell-based; conditions: PathHunter HEK293 cells, relative to endorphin MAX control
T3 construct: host or cells: HEK293 (PathHunter cell line)
T3 sequence (P35372 whole entry): as above

SD rats = assay: Respiratory depression in rats, arterial blood gas PCO2; assay type: in vivo
Source text: 8-week-old male SD rats weighing 200 g-300 g were used as experimental animals to determine the effect of the compound of Example H05, the compound of Example H08, the compound of Example H10, the compound of Example H16, the compound of Example H17, the compound of Example H18, the compound of Example H21, and the compound of Example H24 on the partial pressure of blood in rats after intravenous administration. The effects of the compounds of the invention on respiratory depression were investigated.
After the rats were acclimatized to the experimental environment for 3 days, each animal was anesthetized with sodium pentobarbital (50-60 mg/kg, ip), and then the right common carotid artery was isolated and the unilateral carotid artery tube-bury surgery was performed (PE60, ID*OD*length as 0.76 mm*1.22 mm*20 cm, buried into the artery 1 cm deep, and the tube was filled with heparin sodium tube sealing solution).

T1 sequence (P35372 whole entry, species assumed): as the sequence (P35372 whole entry) above

| Compound | EC50 (μ opioid receptor (MOR)) [nM] | EC50 [1] [nM] | Emax [2] [%] | PCO2, 5 min before administration (SD rats; arterial blood, before administration) [mmHg] | PCO2, 5 min after administration (SD rats; intravenous single dose 0.3 mg/kg (morphine 24 mg/kg), 5 min) [mmHg] | PCO2, 30 min after administration (SD rats; intravenous single dose 0.3 mg/kg (morphine 24 mg/kg), 30 min) [mmHg] | PCO2, 60 min after administration (SD rats; intravenous single dose 0.3 mg/kg (morphine 24 mg/kg), 60 min) [mmHg] | PCO2, 120 min after administration (SD rats; intravenous single dose 0.3 mg/kg (morphine 24 mg/kg), 120 min) [mmHg] |
| --- | --- | --- | --- | --- | --- | --- | --- | --- |
| CNc1ccccc1CNCCC1(c2ccccn2)CCOC2(CCCC2)C1 (centres unmarked) [Example H03] | 6.47 | 4.36 | 3.19 |  |  |  |  |  |
| FC(F)(F)Oc1ccc(CNCCC2(c3ccccn3)CCOC3(CCCC3)C2)cc1 (centres unmarked) [Example H06, (4-trifluoromethoxybenzyl)-[2-(9-(pyridin-2-yl)-6-oxaspiro[4.5]decan-9-yl)ethyl]amine] | 6.1 | 11.8 | 0.66 |  |  |  |  |  |
| Fc1cnc(C2(CCNCc3ccccc3OC(F)(F)F)CCOC3(CCCC3)C2)c(Cl)c1 (centres unmarked) [Example H09, (2-trifluoromethoxybenzyl)-[2-(9-(3-chloro-5-fluoropyridin-2-yl)-6-oxaspiro[4.5]decan-9-yl)ethyl]amine] | 4.12 | 8.45 | 3.28 |  |  |  |  |  |
| FC(F)(F)Oc1cc(Br)ccc1CNCCC1(c2ccccn2)CCOC2(CCCC2)C1 (centres unmarked) [Example H11, (4-bromo-2-trifluoromethoxybenzyl)-[2-(9-(pyridin-2-yl)-6-oxaspiro[4.5]decan-9-yl)ethyl]amine] | 2.08 | 7.31 | 2.28 |  |  |  |  |  |
| Cc1ccc(CNCCC2(c3ccccn3)CCOC3(CCCC3)C2)c(OC(F)(F)F)c1 (centres unmarked) [Example H12, (4-methyl-2-trifluoromethoxybenzyl)-[2-(9-(pyridin-2-yl)-6-oxaspiro[4.5]decan-9-yl)ethyl]amine] | 2.04 | 5.51 | 32.2 |  |  |  |  |  |
| N#Cc1cccc(CNCCC2(c3ccccn3)CCOC3(CCCC3)C2)c1OC(F)(F)F (centres unmarked) [Example H13] | 5.16 | 9.43 | 3.41 |  |  |  |  |  |
| FC(F)(F)c1ccsc1CNCCC1(c2ccccn2)CCOC2(CCCC2)C1 (centres unmarked) [Example H14, ((3-trifluoromethylthiophen-2-yl)methyl)-[2-(9-(pyridin-2-yl)-6-oxaspiro[4.5]decan-9-yl)ethyl]a mine] | 2.1 | 15.9 | 1.82 |  |  |  |  |  |
| Oc1ccc(CNCCC2(c3ccccn3)CCOC3(CCCC3)C2)c(OC(F)(F)F)c1 (centres unmarked) [Example H15, 4-{[2-(9-(pyridin-2-yl)-6-oxaspiro[4.5]decan-9-yl)ethylamine]methyl}-3-trifluoromethoxyphenol] | 3.32 | 4.28 | 15.8 |  |  |  |  |  |
| FC(F)(F)c1ccc2c(c1)CN(CCC1(c3ccccn3)CCOC3(CCCC3)C1)CC2 (centres unmarked) [Example H19, 2-[2-(9-(pyridin-2-yl)-6-oxaspiro[4.5]decan-9-yl)ethyl]-7-trifluoromethyl-1,2,3,4-tetrahydroisoquinoline] | 5.43 | 18.6 | 1.12 |  |  |  |  |  |
| COc1ccc2c(c1)CN(CCC1(c3ccccn3)CCOC3(CCCC3)C1)CC2 (centres unmarked) [Example H20, 7-methoxy-2-[2-(9-pyridin-2-yl-6-oxa-spiro[4.5]decan-9-yl)-ethyl]-1,2,3,4-tetrahydroisoquinoline] | 3.53 | 19.9 | 2.12 |  |  |  |  |  |
| FC(F)(F)Oc1ccccc1CNCCC1(c2ccccn2)CCOC2(CCCC2)C1 (centres unmarked) [Example H22, (2-trifluoromethoxybenzyl)-[2-(9-pyridin-2-yl-6-oxa-spiro[4.5]decan-9-yl) -ethyl]-amine] | 1.04 | 11.9 | 2.31 |  |  |  |  |  |
| c1ccc(C2(CCN3CCc4ccsc4C3)CCOC3(CCCC3)C2)nc1 (centres unmarked) [Example H23, 6-[2-(9-pyridin-2-yl-6-oxa-spiro[4.5]decan-9-yl)-ethyl]-4,5,6,7-tetrahydro-thieno[2,3-c]pyridine] | 4.08 | 9.73 | 2.2 |  |  |  |  |  |
| COc1[nH]ncc1CNCCC1(c2ccccn2)CCOC2(CCCC2)C1 (centres unmarked) [Example H25, [(5-methoxy-1H-pyrazol-4-yl)methyl]-[2-(9-(pyridin-2-yl)-6-oxaspiro[4.5]decan-9-yl)ethyl] amine] | 2.02 | 12.8 | 3.2 |  |  |  |  |  |
| COc1ccsc1CNCC(C)C1(c2ccccn2)CCOC2(CCCC2)C1 (centres unmarked) [Example H26] | 1.76 | 6.95 | 22.6 |  |  |  |  |  |
| COc1ccsc1CNC(C)CC1(c2ccccn2)CCOC2(CCCC2)C1 (centres unmarked) [Example H27] | 4.01 | 12 | 3.32 |  |  |  |  |  |
| FC(F)(F)Oc1c(Br)cccc1CNCCC1(c2ccccn2)CCOC2(CCCC2)C1 (centres unmarked) [Example H28, (3-bromo-2-trifluoromethoxybenzyl)-[2-(9-pyridin-2-yl-6-oxa-spiro[4.5]decan-9-yl)-ethyl]-amine] | 6.35 | 14.2 | 6.26 |  |  |  |  |  |
| Fc1ccc(C2(CCNCc3ccccc3OC(F)F)CCOC3(CCCC3)C2)nc1 (centres unmarked) [Example H29, {2-[9-(5-fluoro-pyridin-2-yl) -6-oxa-spiro[4.5]decan-9-yl]-ethyl}-(2-(difluoromethoxy)-benzyl) -amine] | 6.09 | 10.4 | 7.07 |  |  |  |  |  |
| Fc1ccc(C2(CCNCc3sccc3Cl)CCOC3(CCCC3)C2)nc1 (centres unmarked) [Example H30, {2-[9-(5-fluoro-pyridin-2-yl)-6-oxa-spiro[4.5]decan-9-yl]-ethyl}-((3-chlorothiophen-2-yl)-methyl)-amine] | 5.62 | 17.4 | 2.91 |  |  |  |  |  |
| Cc1ccc(CNCCC2(c3ccc(F)cn3)CCOC3(CCCC3)C2)cc1C (centres unmarked) [Example H31, {2-[9-(5-fluoro-pyridin-2-yl)-6-oxa-spiro[4.5]decan-9-yl]-ethyl}-(3,4-dimethyl-benzyl)-amine] | 3.83 | 8.73 | 5.06 |  |  |  |  |  |
| Cc1c(Cl)cccc1CNCCC1(c2ccc(F)cn2)CCOC2(CCCC2)C1 (centres unmarked) [Example H32, {2-[9-(5-fluoro-pyridin-2-yl)-6-oxa-spiro[4.5]decan-9-yl]-ethyl}-(3-chloro-2-methyl-benzyl)-amine] | 7.35 | 13.5 | 11.7 |  |  |  |  |  |
| Fc1ccc(C2(CCNCc3sccc3OC(F)F)CCOC3(CCCC3)C2)nc1 (centres unmarked) [Example H33, {2-[9-(5-fluoro-pyridin-2-yl)-6-oxa-spiro[4.5]decan-9-yl]-ethyl}-((3-difluoromethoxythiophen-2-yl) -methyl)-amine] | 5.25 | 12 | 8.69 |  |  |  |  |  |
| CN1CC[C@]23c4c5ccc(O)c4O[C@H]2[C@@H](O)C=C[C@H]3[C@H]1C5 [morphine, reference compound] |  |  |  | 36.41 ± 0.98 | 37.26 ± 1.18 | 40.94 ± 2.78 | 58.63 ± 3.53 | 56.9 ± 4.05 |
